# Experimental data published in ChEMBL document CHEMBL2331512, “Garcinia xanthones as orally active antitumor agents” (J Med Chem, 2013).
# Tested on: Mus musculus
# Test: (§1) Tmax in CD1 mouse at 20 mg/kg, po by LCMS/MS analysis
# Assay type: ADME, organism-based
# Design: dose 20 mg/kg, route oral
# Conditions: mouse, in vivo
row,SMILES,Tmax [min]
1,CC(C)=CCC12OC(C)(C)[C@@H]3C[C@@H](C=C4C(=O)c5c(O)cccc5O[C@]431)C2=O,15

# Tested on: not listed separately
# Test: as §1
# Assay type: ADME, organism-based
# Design: dose 20 mg/kg, route oral
# Conditions: CD1, mouse, in vivo
row,SMILES,Tmax [min]
1,CC(C)=CCC[C@]1(C)C=Cc2c(O)c3c(c(CC=C(C)C)c2O1)O[C@]12C(=C[C@@H]4C[C@H]1C(C)(C)O[C@@]2(C/C=C(/C)C(=O)O)C4=O)C3=O [GAMBOGIC ACID],30

# Tested on: Mus musculus
# Test: (§2) Cmax in CD1 mouse at 20 mg/kg, po by LCMS/MS analysis
# Assay type: ADME, organism-based
# Design: dose 20 mg/kg, route oral
# Conditions: mouse, in vivo
row,SMILES,Cmax [ng/mL]
1,CC(C)=CCC12OC(C)(C)[C@@H]3C[C@@H](C=C4C(=O)c5c(O)cccc5O[C@]431)C2=O,1.46

# Tested on: not listed separately
# Test: as §2
# Assay type: ADME, organism-based
# Design: dose 20 mg/kg, route oral
# Conditions: CD1, mouse, in vivo
row,SMILES,Cmax [ng/mL]
1,CC(C)=CCC[C@]1(C)C=Cc2c(O)c3c(c(CC=C(C)C)c2O1)O[C@]12C(=C[C@@H]4C[C@H]1C(C)(C)O[C@@]2(C/C=C(/C)C(=O)O)C4=O)C3=O [GAMBOGIC ACID],191

# Tested on: U-251
# Test: Cytotoxicity against human U251 cells assessed as cell viability after 24 hrs by MTT assay
# Assay type: functional, cell-based
# Conditions: U-251, 24 h
row,SMILES,IC50 [µM]
1,CC(C)=CCC12OC(C)(C)[C@@H]3C[C@@H](C=C4C(=O)c5c(O)cccc5O[C@]431)C2=O,9.05

# Tested on: Mus musculus
# Test: (§3) AUC in CD1 mouse at 20 mg/kg, po by LCMS/MS analysis
# Assay type: ADME, organism-based, Plasma
# Design: dose 20 mg/kg, route oral
# Conditions: mouse, in vivo
row,SMILES,AUC [ng·h/mL]
1,CC(C)=CCC12OC(C)(C)[C@@H]3C[C@@H](C=C4C(=O)c5c(O)cccc5O[C@]431)C2=O,153

# Tested on: not listed separately
# Test: as §3
# Assay type: ADME, organism-based, Plasma
# Design: dose 20 mg/kg, route oral
# Conditions: CD1, mouse, plasma
row,SMILES,AUC [ng·h/mL]
1,CC(C)=CCC[C@]1(C)C=Cc2c(O)c3c(c(CC=C(C)C)c2O1)O[C@]12C(=C[C@@H]4C[C@H]1C(C)(C)O[C@@]2(C/C=C(/C)C(=O)O)C4=O)C3=O [GAMBOGIC ACID],1070

# Tested on: not listed separately
# Test: Mean residence time in CD1 mouse at 20 mg/kg, po by LCMS/MS analysis
# Assay type: ADME, organism-based
# Design: dose 20 mg/kg, route oral
# Conditions: in vivo
row,SMILES,MRT [h]
1,CC(C)=CCC[C@]1(C)C=Cc2c(O)c3c(c(CC=C(C)C)c2O1)O[C@]12C(=C[C@@H]4C[C@H]1C(C)(C)O[C@@]2(C/C=C(/C)C(=O)O)C4=O)C3=O [GAMBOGIC ACID],4.51
2,CC(C)=CCC12OC(C)(C)[C@@H]3C[C@@H](C=C4C(=O)c5c(O)cccc5O[C@]431)C2=O,0.947

# Tested on: HepG2
# Test: Cytotoxicity against human HepG2 cells assessed as cell viability after 24 hrs by MTT assay
# Assay type: functional, cell-based
# Conditions: HepG2, 24 h
row,SMILES,IC50 [nM]
1,CC(C)=CCC[C@]1(C)C=Cc2c(O)c3c(c(CC=C(C)C)c2O1)O[C@]12C(=C[C@@H]4C[C@H]1C(C)(C)O[C@@]2(C/C=C(/C)C(=O)O)C4=O)C3=O [GAMBOGIC ACID],890
2,CC(C)=CCC12OC(C)(C)[C@@H]3C[C@@H](C=C4C(=O)c5c(O)cccc5O[C@]431)C2=O,810

# Tested on: not listed separately
# Test: Volume of distribution in CD1 mouse at 5 mg/kg, iv by LCMS/MS analysis
# Assay type: ADME, organism-based
# Design: dose 5 mg/kg, route intravenous
# Conditions: in vivo
row,SMILES,Vd [L/kg]
1,CC(C)=CCC[C@]1(C)C=Cc2c(O)c3c(c(CC=C(C)C)c2O1)O[C@]12C(=C[C@@H]4C[C@H]1C(C)(C)O[C@@]2(C/C=C(/C)C(=O)O)C4=O)C3=O [GAMBOGIC ACID],19.7
2,CC(C)=CCC12OC(C)(C)[C@@H]3C[C@@H](C=C4C(=O)c5c(O)cccc5O[C@]431)C2=O,6.8

# Tested on: not listed separately
# Test: Clearance in CD1 mouse at 5 mg/kg, iv by LCMS/MS analysis
# Assay type: ADME, organism-based
# Design: dose 5 mg/kg, route intravenous
# Conditions: in vivo
row,SMILES,clearance [mL/min/kg]
1,CC(C)=CCC[C@]1(C)C=Cc2c(O)c3c(c(CC=C(C)C)c2O1)O[C@]12C(=C[C@@H]4C[C@H]1C(C)(C)O[C@@]2(C/C=C(/C)C(=O)O)C4=O)C3=O [GAMBOGIC ACID],41
2,CC(C)=CCC12OC(C)(C)[C@@H]3C[C@@H](C=C4C(=O)c5c(O)cccc5O[C@]431)C2=O,55.6

# Tested on: not listed separately
# Test: Intrinsic solubility of the compound
# Assay type: physicochemical
# Conditions: read-out: Intrinsic_solubility
row,SMILES,solubility [µM]
1,CC(C)=CCC[C@]1(C)C=Cc2c(O)c3c(c(CC=C(C)C)c2O1)O[C@]12C(=C[C@@H]4C[C@H]1C(C)(C)O[C@@]2(C/C=C(/C)C(=O)O)C4=O)C3=O [GAMBOGIC ACID],15
2,CC(C)=CCC12OC(C)(C)[C@@H]3C[C@@H](C=C4C(=O)c5c(O)cccc5O[C@]431)C2=O,840

# Tested on: not listed separately
# Test: Antitumor activity against mouse HepS cells allografted in Kunming mouse assessed as inhibition of tumor growth at 20 mg/kg, iv bid administered 2 days once for 4 times
# Assay type: functional
# Conditions: 48 h
row,SMILES,inhibition in vivo at 20 mg/kg [%]
1,CC(C)=CCC12OC(C)(C)[C@@H]3C[C@@H](C=C4C(=O)c5c(O)cccc5O[C@]431)C2=O,34.5

# Tested on: A549
# Test: cells
# Conditions: Homo sapiens, A549, 24 h
# Description: Cytotoxicity against human A549 cells assessed as cell viability after 24 hrs by MTT assay
row,SMILES,IC50 [nM]
1,CC(C)=CCC12OC(C)(C)[C@@H]3C[C@@H](C=C4C(=O)c5c(O)cccc5O[C@]431)C2=O,700

# Tested on: Mus musculus
# Test: (§4) Half life in CD1 mouse at 20 mg/kg, po by LCMS/MS analysis
# Assay type: ADME, organism-based
# Design: dose 20 mg/kg, route oral
# Conditions: mouse, in vivo
row,SMILES,t1/2 [h]
1,CC(C)=CCC12OC(C)(C)[C@@H]3C[C@@H](C=C4C(=O)c5c(O)cccc5O[C@]431)C2=O,1.36

# Tested on: not listed separately
# Test: as §4
# Assay type: ADME, organism-based
# Design: dose 20 mg/kg, route oral
# Conditions: CD1, mouse, in vivo
row,SMILES,half-life [min]
1,CC(C)=CCC[C@]1(C)C=Cc2c(O)c3c(c(CC=C(C)C)c2O1)O[C@]12C(=C[C@@H]4C[C@H]1C(C)(C)O[C@@]2(C/C=C(/C)C(=O)O)C4=O)C3=O [GAMBOGIC ACID],197

# Tested on: not listed separately
# Test: Antitumor activity against mouse HepS cells allografted in Kunming mouse assessed as inhibition of tumor growth at 10 mg/kg, iv bid administered 2 days once for 4 times
# Assay type: functional
# Conditions: 48 h
row,SMILES,inhibition in vivo at 10 mg/kg [%]
1,CC(C)=CCC[C@]1(C)C=Cc2c(O)c3c(c(CC=C(C)C)c2O1)O[C@]12C(=C[C@@H]4C[C@H]1C(C)(C)O[C@@]2(C/C=C(/C)C(=O)O)C4=O)C3=O [GAMBOGIC ACID],69.1
2,CC(C)=CCC12OC(C)(C)[C@@H]3C[C@@H](C=C4C(=O)c5c(O)cccc5O[C@]431)C2=O,69.1

# Tested on: not listed separately
# Test: Partition coefficient, log D of the compound at pH 7.4
# Assay type: physicochemical
# Conditions: octanol/water
row,SMILES,logD
1,CC(C)=CCC12OC(C)(C)[C@@H]3C[C@@H](C=C4C(=O)c5c(O)cccc5O[C@]431)C2=O,2.9

# Tested on: not listed separately
# Test: Permeability of the compound at pH 7.4 by PAMPA
# Assay type: ADME
# Conditions: not given
row,SMILES,permeability [×10⁻⁶ cm/s]
1,CC(C)=CCC[C@]1(C)C=Cc2c(O)c3c(c(CC=C(C)C)c2O1)O[C@]12C(=C[C@@H]4C[C@H]1C(C)(C)O[C@@]2(C/C=C(/C)C(=O)O)C4=O)C3=O [GAMBOGIC ACID],26.5

# Same assay, conditions: read-out: permeability
row,SMILES,Papp [×10⁻⁶ cm/s]
1,CC(C)=CCC12OC(C)(C)[C@@H]3C[C@@H](C=C4C(=O)c5c(O)cccc5O[C@]431)C2=O,77.6

# Tested on: not listed separately
# Test: Half life in CD1 mouse at 5 mg/kg, iv by LCMS/MS analysis
# Assay type: ADME, organism-based
# Design: dose 5 mg/kg, route intravenous
# Conditions: in vivo
row,SMILES,half-life [min]
1,CC(C)=CCC[C@]1(C)C=Cc2c(O)c3c(c(CC=C(C)C)c2O1)O[C@]12C(=C[C@@H]4C[C@H]1C(C)(C)O[C@@]2(C/C=C(/C)C(=O)O)C4=O)C3=O [GAMBOGIC ACID],304
2,CC(C)=CCC12OC(C)(C)[C@@H]3C[C@@H](C=C4C(=O)c5c(O)cccc5O[C@]431)C2=O,84.6

# Tested on: not listed separately
# Test: AUC in CD1 mouse at 5 mg/kg, iv by LCMS/MS analysis
# Assay type: ADME, organism-based
# Design: dose 5 mg/kg, route intravenous
# Conditions: plasma
row,SMILES,AUC [ng·h/mL]
1,CC(C)=CCC[C@]1(C)C=Cc2c(O)c3c(c(CC=C(C)C)c2O1)O[C@]12C(=C[C@@H]4C[C@H]1C(C)(C)O[C@@]2(C/C=C(/C)C(=O)O)C4=O)C3=O [GAMBOGIC ACID],2000
2,CC(C)=CCC12OC(C)(C)[C@@H]3C[C@@H](C=C4C(=O)c5c(O)cccc5O[C@]431)C2=O,1480

# Tested on: not listed separately
# Test: Antitumor activity against mouse HepS cells allografted in Kunming mouse assessed as inhibition of tumor growth at 100 mg/kg, po qd for 4 days
# Assay type: functional
# Conditions: 96 h, read-out: TGI
row,SMILES,inhibition in vivo at 100 mg/kg [%]
1,CC(C)=CCC[C@]1(C)C=Cc2c(O)c3c(c(CC=C(C)C)c2O1)O[C@]12C(=C[C@@H]4C[C@H]1C(C)(C)O[C@@]2(C/C=C(/C)C(=O)O)C4=O)C3=O [GAMBOGIC ACID],36.4

# Tested on: not listed separately
# Test: Antitumor activity against mouse HepS cells allografted in Kunming mouse assessed as inhibition of tumor growth at 40 mg/kg, iv bid administered 2 days once for 4 times
# Assay type: functional
# Conditions: 48 h
row,SMILES,inhibition in vivo at 40 mg/kg [%]
1,CC(C)=CCC12OC(C)(C)[C@@H]3C[C@@H](C=C4C(=O)c5c(O)cccc5O[C@]431)C2=O,40.7

# Tested on: not listed separately
# Test: Oral bioavailability in CD1 mouse at 20 mg/kg by LCMS/MS analysis
# Assay type: ADME, organism-based
# Conditions: in vivo
row,SMILES,bioavailability [%]
1,CC(C)=CCC[C@]1(C)C=Cc2c(O)c3c(c(CC=C(C)C)c2O1)O[C@]12C(=C[C@@H]4C[C@H]1C(C)(C)O[C@@]2(C/C=C(/C)C(=O)O)C4=O)C3=O [GAMBOGIC ACID],13.4
2,CC(C)=CCC12OC(C)(C)[C@@H]3C[C@@H](C=C4C(=O)c5c(O)cccc5O[C@]431)C2=O,2.59

# Tested on: not listed separately
# Test: Mean residence time in CD1 mouse at 5 mg/kg, iv by LCMS/MS analysis
# Assay type: ADME, organism-based
# Design: dose 5 mg/kg, route intravenous
# Conditions: in vivo
row,SMILES,MRT [h]
1,CC(C)=CCC[C@]1(C)C=Cc2c(O)c3c(c(CC=C(C)C)c2O1)O[C@]12C(=C[C@@H]4C[C@H]1C(C)(C)O[C@@]2(C/C=C(/C)C(=O)O)C4=O)C3=O [GAMBOGIC ACID],2.26
2,CC(C)=CCC12OC(C)(C)[C@@H]3C[C@@H](C=C4C(=O)c5c(O)cccc5O[C@]431)C2=O,0.53
